The values that follow come from US20230138984A1, “HA-PACLITAXEL CONJUGATE FOR TREATMENT OF MESOTHELIOMA” (FIDIA FARMACEUTICI S.p.A., priority 2020, published 2023).

One experiment concerns H2052 cells. Description: MTT cytotoxicity assay on mesothelioma cell line H2052. Particulars: Homo sapiens, NCI-H2052, 48 h, read-out: Normalized IC50. Background: Tetrazolium assays rely on reduction of a dye to a coloured formazan, in cell work by metabolically active cells.
The subject of another experiment is H28 cells. The experiment is described as follows: MTT cytotoxicity assay on mesothelioma cell line H28. Particulars: Homo sapiens, NCI-H28, 48 h, read-out: Normalized IC50.
Experiment [1] relates to human mesothelioma H2052 cells. Particulars: for average luminescence of tumor zone: weekly, order of magnitude, compared with untreated 1x10^12 on the 100° day. An excerpt: The cell lines of human mesothelioma H2052 were transduced with a lentiviral vector (method by which the genes can be inserted into cells using the lentivirus) containing a bidirectional promoter allowing the high and coordinated expression of two reporter genes for the synthesis of luciferase and eGFP (enhanced Green Fluorescent Protein), as described in Amendola et al., Nat Biotechnol 2005, 23:108-16: luciferase is an enzyme that catalyzes the oxidation of luciferin which oxidizing emits energy ([…]) in the form of light radiation and such reaction has an ultra-high sensitivity; the eGFP derives from the jellyfish Aequorea victoria, and it is capable of emitting bright green light when exposed to certain wavelengths; both such proteins are used below as a “marker system” for human mesothelioma cells H2052 transduced as above, in order to identify the tumor mass that is formed in animals injected with such cells and to determine its dimensions and the growth over time through suitable bioluminescence sensor.
Cells were incubated for 6 hours in a mixture of complete medium (RPMI + 10% FBS, 1% HEPES, L-glutamine and penicillin/streptomycin) containing the above-mentioned vector and protamine sulphate. At the end of 6 hours of incubation, supernatants were re-integrated with complete medium. After 5 days, the effect of the transduction was evaluated through flow cytometry.
Cells were then expanded and sub-divided in order to isolate the population with the higher expression of reporter genes.
All treated animals were monitored through detection of bioluminescence emitted by their tumor zone treated with HA-paclitaxel conjugate, in order to assess over time, the dimension (and therefore the growth) of the tumor with reference to animals untreated with any chemotherapeutic agent and to those treated with non-conjugated paclitaxel.

The next experiment has as its system H2452 cells. Description: MTT cytotoxicity assay on mesothelioma cell line H2452. Particulars: Homo sapiens, NCI-H2452, 48 h, read-out: Normalized IC50.

Each structure is given as a SMILES string. In brackets after ≈: the same amount, converted by molar mass. Where two headings read alike, the source gives them in different places.

`CC(=O)O[C@H]1C(=O)[C@@]2(C)[C@H]([C@H](OC(=O)c3ccccc3)[C@]3(O)C[C@H](OC(=O)[C@H](O)[C@@H](NC(=O)c4ccccc4)c4ccccc4)C(C)=C1C3(C)C)[C@]1(OC(C)=O)CO[C@@H]1C[C@@H]2O` [paclitaxel]: the IC50 in the experiment on H2052 cells came out at 0.225 µg/mL (≈ 0.263 µM); in the experiment on H28 cells, 0.787 µg/mL (≈ 0.922 µM); in the experiment with H2452 cells, 0.8 µg/mL (≈ 0.937 µM). The “average luminescence of tumor zone” value in experiment [1] (2° sample: 10 mg/Kg iv for 3 treatments then ip) and in experiment [1] (3° sample: 10 mg/Kg ip) was ~1x10^11 Ph/sec each time. Also, the “bioluminescence emitted by treated tumor zone” value in experiment [1] (non-conjugated paclitaxel 10 mg/Kg, after 139 days of observation (FIG. 2)) is reported as “around 12x10^11 Ph/sec”.

Broadly, the IC50 is the point on the concentration scale where inhibition reaches its midpoint.
